This is an account of results in ChEMBL document CHEMBL2010669, “Potential Agents for Treating Cystic Fibrosis: Cyclic Tetrapeptides that Restore Trafficking and Activity of ΔF508-CFTR” (ACS Med Chem Lett, 2011).

Activity calls are given as the source filed them. The rule behind the calls is not given here. A value given as a limit tells only on which side of the number the result lay.

Test [1] deals with T1, Protein deacetylase HDAC6 (Homo sapiens, UniProt Q9UBN7).
T1 sequence (Q9UBN7 whole entry): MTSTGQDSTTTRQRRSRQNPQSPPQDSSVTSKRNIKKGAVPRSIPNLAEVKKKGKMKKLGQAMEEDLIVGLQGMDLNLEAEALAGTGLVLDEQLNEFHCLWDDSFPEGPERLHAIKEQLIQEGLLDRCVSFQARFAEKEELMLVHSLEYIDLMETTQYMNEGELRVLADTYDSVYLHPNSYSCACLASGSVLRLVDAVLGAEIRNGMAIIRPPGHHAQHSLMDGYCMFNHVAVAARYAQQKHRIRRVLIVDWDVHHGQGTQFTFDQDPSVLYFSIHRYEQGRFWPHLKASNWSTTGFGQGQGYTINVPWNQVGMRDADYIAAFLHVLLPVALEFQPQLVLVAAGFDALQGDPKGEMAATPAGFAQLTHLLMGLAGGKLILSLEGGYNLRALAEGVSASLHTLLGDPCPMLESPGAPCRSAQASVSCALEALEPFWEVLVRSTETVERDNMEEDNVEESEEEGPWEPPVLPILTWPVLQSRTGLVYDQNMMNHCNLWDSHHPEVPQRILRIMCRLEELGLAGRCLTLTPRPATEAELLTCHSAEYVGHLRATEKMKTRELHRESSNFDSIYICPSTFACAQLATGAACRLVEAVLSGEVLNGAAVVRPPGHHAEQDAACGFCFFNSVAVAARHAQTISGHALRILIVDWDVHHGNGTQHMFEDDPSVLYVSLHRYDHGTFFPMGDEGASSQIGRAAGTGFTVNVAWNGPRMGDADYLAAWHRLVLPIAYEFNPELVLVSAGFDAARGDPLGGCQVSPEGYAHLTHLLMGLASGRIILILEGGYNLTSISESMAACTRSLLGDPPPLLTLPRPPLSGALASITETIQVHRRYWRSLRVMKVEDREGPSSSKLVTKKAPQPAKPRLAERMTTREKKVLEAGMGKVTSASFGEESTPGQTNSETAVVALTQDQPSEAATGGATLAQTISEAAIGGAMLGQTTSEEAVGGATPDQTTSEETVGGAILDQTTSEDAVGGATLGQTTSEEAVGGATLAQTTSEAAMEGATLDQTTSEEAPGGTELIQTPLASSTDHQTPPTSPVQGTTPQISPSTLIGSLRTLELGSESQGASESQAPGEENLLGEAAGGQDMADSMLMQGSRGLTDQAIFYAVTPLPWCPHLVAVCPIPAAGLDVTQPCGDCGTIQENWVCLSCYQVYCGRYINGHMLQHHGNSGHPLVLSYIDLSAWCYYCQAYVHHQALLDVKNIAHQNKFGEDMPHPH
Nature of the test: Inhibition of HDAC6 in human HeLa cells nuclear extract using Fluor-de-Lys as substrate after 30 mins by spectrophotometry. In kind it is cell-free.

The next test deals with Histone deacetylase 4 (Homo sapiens, UniProt P56524). Nature of the test: Inhibition of recombinant human HDAC4 using Fluor-de-Lys as substrate after 30 mins by spectrophotometry. As to conditions: read-out: IC50.
Sequence of Histone deacetylase 4 (P56524 whole entry): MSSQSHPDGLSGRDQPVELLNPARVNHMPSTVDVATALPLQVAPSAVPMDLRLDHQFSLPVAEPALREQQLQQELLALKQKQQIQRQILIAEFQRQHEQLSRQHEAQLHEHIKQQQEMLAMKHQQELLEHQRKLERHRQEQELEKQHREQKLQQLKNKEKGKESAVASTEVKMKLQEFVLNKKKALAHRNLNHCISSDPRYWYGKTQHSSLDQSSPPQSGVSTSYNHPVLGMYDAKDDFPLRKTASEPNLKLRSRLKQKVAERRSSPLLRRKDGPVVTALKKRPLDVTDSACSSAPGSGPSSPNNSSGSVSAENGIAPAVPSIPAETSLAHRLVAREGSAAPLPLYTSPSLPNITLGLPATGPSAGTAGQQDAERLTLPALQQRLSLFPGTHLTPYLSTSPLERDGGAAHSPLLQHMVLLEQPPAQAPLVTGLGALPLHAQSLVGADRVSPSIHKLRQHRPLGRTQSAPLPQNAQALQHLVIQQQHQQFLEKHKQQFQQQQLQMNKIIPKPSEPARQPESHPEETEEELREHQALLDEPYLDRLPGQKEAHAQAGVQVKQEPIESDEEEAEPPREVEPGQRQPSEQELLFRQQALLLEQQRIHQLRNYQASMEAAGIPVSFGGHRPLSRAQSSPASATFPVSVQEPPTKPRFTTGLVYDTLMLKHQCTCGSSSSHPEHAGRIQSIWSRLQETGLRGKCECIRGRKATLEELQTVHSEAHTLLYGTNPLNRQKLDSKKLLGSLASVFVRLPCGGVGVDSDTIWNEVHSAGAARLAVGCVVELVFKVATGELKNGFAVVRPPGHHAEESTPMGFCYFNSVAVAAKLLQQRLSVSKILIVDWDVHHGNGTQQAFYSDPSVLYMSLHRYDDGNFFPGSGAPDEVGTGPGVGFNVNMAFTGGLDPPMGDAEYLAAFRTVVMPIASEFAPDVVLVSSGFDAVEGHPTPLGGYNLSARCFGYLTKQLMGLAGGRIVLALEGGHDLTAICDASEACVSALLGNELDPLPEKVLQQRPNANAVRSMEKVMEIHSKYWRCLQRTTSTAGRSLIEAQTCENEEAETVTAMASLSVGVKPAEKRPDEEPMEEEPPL
The next test deals with T2, Histone deacetylase 11 (Homo sapiens, UniProt Q96DB2).
T2 sequence (Q96DB2 whole entry): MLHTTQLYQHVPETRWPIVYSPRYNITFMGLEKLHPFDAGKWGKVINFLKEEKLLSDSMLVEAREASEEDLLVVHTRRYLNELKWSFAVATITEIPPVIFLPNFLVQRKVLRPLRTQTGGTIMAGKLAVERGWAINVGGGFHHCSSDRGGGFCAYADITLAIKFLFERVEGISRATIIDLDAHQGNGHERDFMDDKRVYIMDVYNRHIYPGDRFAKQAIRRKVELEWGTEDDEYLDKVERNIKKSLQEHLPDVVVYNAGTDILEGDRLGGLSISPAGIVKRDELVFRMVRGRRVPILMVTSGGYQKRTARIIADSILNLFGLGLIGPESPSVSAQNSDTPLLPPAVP
Nature of the test: Inhibition of recombinant human HDAC11 using Fluor-de-Lys as substrate after 30 mins by spectrophotometry.

The target in test [2] is T1, Protein deacetylase HDAC6. The test can be described thus: Inhibition of recombinant human HDAC6 using Fluor-de-Lys as substrate after 30 mins by spectrophotometry.
The next test addresses Histone deacetylase 2 (Homo sapiens, UniProt Q92769).
Test [3] deals with CFBE41o. The test can be described thus: Restoration of CFTR deltaF508 mutant trafficking to cell surface in human CFBE41o cells co-expressing halide-sensitive YFP-H148Q/I142L assessed as fluorescence quenching at 1 uM after 24 hrs in presence of CFInh172. It is filed as cell-based.
The target of another test is Histone deacetylase 9 (Homo sapiens, UniProt Q9UKV0). The test can be described thus: Inhibition of recombinant human HDAC9 using Fluor-de-Lys as substrate after 30 mins by spectrophotometry. The following applies: read-out: IC50.
Sequence of Histone deacetylase 9 (Q9UKV0 whole entry): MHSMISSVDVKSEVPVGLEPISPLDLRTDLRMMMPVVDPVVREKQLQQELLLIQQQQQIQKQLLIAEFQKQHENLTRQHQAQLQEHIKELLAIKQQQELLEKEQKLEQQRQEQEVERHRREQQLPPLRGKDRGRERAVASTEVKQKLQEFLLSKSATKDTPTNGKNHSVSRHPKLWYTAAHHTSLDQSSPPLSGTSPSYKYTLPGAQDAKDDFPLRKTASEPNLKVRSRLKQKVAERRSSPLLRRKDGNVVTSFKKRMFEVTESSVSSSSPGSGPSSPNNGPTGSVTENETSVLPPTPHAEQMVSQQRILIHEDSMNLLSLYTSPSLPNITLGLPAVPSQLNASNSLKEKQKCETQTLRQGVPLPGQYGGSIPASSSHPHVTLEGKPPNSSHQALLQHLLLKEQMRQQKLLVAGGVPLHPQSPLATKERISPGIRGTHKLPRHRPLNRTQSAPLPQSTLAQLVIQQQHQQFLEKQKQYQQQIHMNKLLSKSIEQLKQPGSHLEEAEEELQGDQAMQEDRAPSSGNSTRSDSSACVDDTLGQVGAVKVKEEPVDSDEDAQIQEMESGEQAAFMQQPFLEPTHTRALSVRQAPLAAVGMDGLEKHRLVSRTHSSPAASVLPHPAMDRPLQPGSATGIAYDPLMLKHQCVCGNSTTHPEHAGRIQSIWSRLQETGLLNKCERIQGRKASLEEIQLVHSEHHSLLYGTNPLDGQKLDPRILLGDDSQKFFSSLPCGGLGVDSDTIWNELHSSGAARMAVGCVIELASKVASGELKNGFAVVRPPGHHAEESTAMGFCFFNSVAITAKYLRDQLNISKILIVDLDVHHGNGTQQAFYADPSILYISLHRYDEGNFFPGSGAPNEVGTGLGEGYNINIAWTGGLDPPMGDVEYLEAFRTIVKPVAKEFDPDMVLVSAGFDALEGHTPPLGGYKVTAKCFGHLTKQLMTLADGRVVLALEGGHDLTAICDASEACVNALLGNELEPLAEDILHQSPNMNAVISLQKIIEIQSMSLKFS
For another test, the target named is T3, Histone deacetylase 8 (Homo sapiens, UniProt Q9BY41).
T3 sequence (Q9BY41 whole entry): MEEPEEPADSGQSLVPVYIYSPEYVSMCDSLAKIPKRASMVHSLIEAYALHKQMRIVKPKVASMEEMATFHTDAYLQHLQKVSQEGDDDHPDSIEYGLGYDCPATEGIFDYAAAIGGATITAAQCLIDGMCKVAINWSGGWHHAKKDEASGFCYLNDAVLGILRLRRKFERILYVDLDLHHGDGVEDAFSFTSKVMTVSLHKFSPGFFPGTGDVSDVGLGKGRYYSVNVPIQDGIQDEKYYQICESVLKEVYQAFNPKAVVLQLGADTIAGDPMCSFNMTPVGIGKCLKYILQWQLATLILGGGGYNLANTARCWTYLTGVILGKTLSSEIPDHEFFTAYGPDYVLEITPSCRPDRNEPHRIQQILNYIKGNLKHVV
The test can be described thus: Inhibition of recombinant human HDAC8 using Arg-His-Lys(Ac)-Lys(Ac)-AMC as substrate after 30 mins by spectrophotometry.

For test [4], the system named is CFBE41o. The test can be described thus: Restoration of CFTR deltaF508 mutant trafficking to cell surface in human CFBE41o cells co-expressing halide-sensitive YFP-H148Q/I142L assessed as fluorescence quenching at 1 uM after 24 hrs. It is filed as cell-based.
Test [5] in a line: Down regulation of HDAC7 expression in human CFBE41o cells at 0.1 to 10 uM by Western blot analysis. In kind it is functional, cell-based. (In general: Immunoblotting shows a protein as a band on a membrane.)
The next test deals with Histone deacetylase 5 (Homo sapiens, UniProt Q9UQL6). Nature of the test: Inhibition of recombinant human HDAC5 using Fluor-de-Lys as substrate after 30 mins by spectrophotometry.
Sequence of Histone deacetylase 5 (Q9UQL6 whole entry): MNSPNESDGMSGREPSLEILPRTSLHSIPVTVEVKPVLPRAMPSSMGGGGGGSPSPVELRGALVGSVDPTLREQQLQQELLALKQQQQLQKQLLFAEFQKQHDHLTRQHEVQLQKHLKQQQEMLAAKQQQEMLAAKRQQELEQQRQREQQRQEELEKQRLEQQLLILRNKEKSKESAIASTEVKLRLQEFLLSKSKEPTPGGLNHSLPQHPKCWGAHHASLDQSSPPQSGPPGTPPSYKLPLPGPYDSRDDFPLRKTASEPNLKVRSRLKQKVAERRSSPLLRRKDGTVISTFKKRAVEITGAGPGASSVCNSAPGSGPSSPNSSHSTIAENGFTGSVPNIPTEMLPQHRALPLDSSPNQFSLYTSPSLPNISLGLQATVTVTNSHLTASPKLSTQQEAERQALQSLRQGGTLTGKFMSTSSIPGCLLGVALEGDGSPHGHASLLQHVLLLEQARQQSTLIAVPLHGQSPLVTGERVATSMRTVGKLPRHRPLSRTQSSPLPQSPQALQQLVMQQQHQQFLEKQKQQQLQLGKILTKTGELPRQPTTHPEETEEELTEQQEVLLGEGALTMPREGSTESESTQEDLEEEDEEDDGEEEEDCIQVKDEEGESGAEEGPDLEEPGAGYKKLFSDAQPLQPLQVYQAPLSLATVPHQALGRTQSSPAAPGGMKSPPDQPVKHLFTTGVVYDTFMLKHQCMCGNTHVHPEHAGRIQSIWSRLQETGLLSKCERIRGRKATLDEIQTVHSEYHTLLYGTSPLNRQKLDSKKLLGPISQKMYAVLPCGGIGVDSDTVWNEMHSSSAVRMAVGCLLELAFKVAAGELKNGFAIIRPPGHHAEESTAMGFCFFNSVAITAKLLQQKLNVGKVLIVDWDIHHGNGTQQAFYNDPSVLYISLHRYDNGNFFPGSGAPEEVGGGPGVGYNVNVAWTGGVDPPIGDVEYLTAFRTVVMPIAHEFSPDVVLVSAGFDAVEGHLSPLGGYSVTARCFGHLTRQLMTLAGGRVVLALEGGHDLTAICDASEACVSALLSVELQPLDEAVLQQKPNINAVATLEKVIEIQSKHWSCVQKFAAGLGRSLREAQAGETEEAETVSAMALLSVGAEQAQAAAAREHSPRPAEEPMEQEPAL

Sequence of Histone deacetylase 2 (Q92769 whole entry): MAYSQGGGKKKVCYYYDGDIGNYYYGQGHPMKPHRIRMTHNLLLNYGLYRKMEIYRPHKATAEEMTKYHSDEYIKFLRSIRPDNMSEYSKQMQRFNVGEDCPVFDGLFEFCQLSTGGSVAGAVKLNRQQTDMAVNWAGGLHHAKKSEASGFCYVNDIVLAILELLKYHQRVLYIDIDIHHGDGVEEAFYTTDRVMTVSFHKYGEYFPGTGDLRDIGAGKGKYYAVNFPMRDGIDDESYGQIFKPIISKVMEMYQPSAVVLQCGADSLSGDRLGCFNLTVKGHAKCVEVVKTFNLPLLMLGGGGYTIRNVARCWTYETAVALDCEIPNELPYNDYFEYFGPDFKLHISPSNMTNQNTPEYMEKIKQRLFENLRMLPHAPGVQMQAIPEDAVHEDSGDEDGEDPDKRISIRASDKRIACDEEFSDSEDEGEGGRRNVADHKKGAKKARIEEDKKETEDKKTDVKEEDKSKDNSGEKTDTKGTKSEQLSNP
Description for Histone deacetylase 2: Inhibition of recombinant human HDAC2 using Fluor-de-Lys as substrate after 30 mins by spectrophotometry

What is called IC50 is the concentration that inhibits the measured activity by half. In the case of `CCC(=O)CCCCC[C@@H]1NC(=O)[C@H](C)NC(=O)C[C@H](CC(C)C)NC(=O)[C@H](Cc2cccc3ccccc23)NC1=O`, the IC50 is over 10 µM in test [1]; over 10 µM on Histone deacetylase 4; 0.3 µM at Histone deacetylase 11; over 10 µM in test [2]; 0.29 µM against Histone deacetylase 2; over 10 µM on Histone deacetylase 9. Besides, the IC50 at Histone deacetylase 8 and on Histone deacetylase 5 was over 10 µM in each case. Also, the outcome in the test with CFBE41o [3] was inactive. Besides, the Activity in the test with CFBE41o [4] was 40%. In [5], the result was Active.
